Here are results for five compounds from US6656963B2, “Indole-3-carbinol (I3C) derivatives and methods” (The Regents of the University of California, priority 1997, dated 2003).

The subject of data set [1] is CDK6. The data set is described as follows: Western and Northern blot of CDK6 in treated breast cancer cells. The data set is classed as cell-based, human. The following applies: for level of CDK6 protein (Western blot): cells treated with combinations of I3C and/or tamoxifen. On the procedure: For example, I3C derivatives may be analyzed by western blot to determine the level of CDK6 protein produced in treated or untreated human MCF7 breast cancer cells. In particular, cells are treated with varying concentrations, varying times alone or in the presence of particular sets of anti-estrogens; treatment with I3C may be used as a positive control. The cell extracts are then electrophoretically fractionated in SDS polyacrylamide gels, blotted onto nitrocellular membranes, the blotted proteins probed with CDK6 antibodies and the CDK6 protein visualized by autoradiography. […] For example, the levels of the other cyclin dependent kinases (CDK2 and CDK4), cell cycle activators (cyclin D 1, D2, D3 and E) or cell cycle inhibitors (p 15, 16, p21 or p27) that function at discrete times within G1 may be assessed in indole treated or untreated MCF7 breast cancer cells.
To determine the mechanism by which I3C induces the G1 cell cycle arrest of human breast cancer cells, Western blot and Northern blot analyses were utilized to examine whether I3C treatment regulates the protein production and transcript expression of the cyclin dependent protein kinases (CDKs), cyclins and CDK Inhibitor components of the cell cycle that function within the G1 phase.
In general terms: In western blotting, separated proteins are transferred to a membrane and probed.

Data set [2] relates to estrogen receptor (ER). The data set is described as follows: ERE-vit-CAT reporter plasmid activity in transiently transfected MCF7 cells. The class given is cell-based, human. As to conditions: 48 hours; for effect on ERE-vit-CAT activity: estrogen 100 nM. As for the experimental part:
Cancer cells are also treated with combinations of indole-derivatives and either steroidal or nonsteroidal anti-estrogens, such as tamoxifen, ICI 164384 and raloxifene (39, 52), at both suboptimal and optimal doses to determine the ability of a given I3C derivative to syngerize with the anti-estrogens in the growth suppression response. […] For example, MCF7 cells are transiently transfected with the ERE-vit-CAT reporter plasmid, which contains three estrogen responsive elements, and the cells monitored for changes in estrogen regulated CAT activity. For comparison, the effects of the I3C derivatives on growth of the estrogen-non-responsive MDA-MB-231 breast cell line are examined. […] Therefore, purified indole derivatives is also assayed in MCF7 cells for Ah receptor affinity, activation of Ah receptor binding to DNA, and activation of an Ah receptor-responsive CAT reporter (17).
(§1) I3C effects on estrogen receptor (ER) function was monitored by transient transfection of an ERE-vit-CAT reporter plasmid containing the vitellogenin promoter with three estrogen response elements linked upstream and driving the bacterial chloramphenicol acetyl transferase (CAT) gene.

The subject of data set [3] is cyclin D1. The following applies: estrogen responsive breast cancer cells; cited from earlier work.
For data set [4], the system named is estrogen receptor-deficient MDA-MB-231 breast cancer cells. Put plainly: [3H]thymidine incorporation in estrogen receptor-deficient breast cancer cells. The following applies: for growth inhibitory effect: 48 hours, 100 μM I3C, 10 μM tamoxifen, alone or combined. The class given is cell-based, human. On the procedure: as §1
(§2) Antiproliferative effects of a combination of I3C and the anti-estrogen tamoxifen on breast cancer cell growth: Estrogen receptor (ER)-containing MCF7 or ER-deficient MDA-MB-231 breast cancer cells were treated for 48 hours with 100 μM I3C or 10 μM tamoxifen alone or with a combination of both reagents, and [^3H]thymidine incorporation used as a measure of cell proliferation.
Background: Incorporation of labelled thymidine or its analogues reports DNA synthesis.

The subject of data set [5] is MCF-7 cells. The data set is described as follows: Flow cytometry of nuclear DNA content (propidium iodide), cell cycle arrest. The class given is cell-based, human. The following applies: for percentage of MCF7 cells arrested in G1: I3C, tamoxifen alone or combined. As for the experimental part:
(§3) Particularly suitable assays for I3C derivatives include evaluating their ability to induce a G1 cell cycle arrest and to inhibit CDK6 protein levels in cultured MCF7 breast cancer cells. For the cell proliferative asssays, we have sucessfully employed several methods that we have previously described for rodent mammary tumor cells (44, 51). Briefly, human MCF7 breast cancer cells are cultured at subconfluency in medium supplemented with 10% fetal bovine serum and […] insulin. […] The incorporation of [^3H]thymidine (in a two hour pulse) into 10% trichloroacetic acid precipitable material are used to monitor and quantitate DNA synthesis and provides a direct measure of the proliferative state of the cells.
To assess the cell cycle effects of I3C, MCF-7 cells treated with or without 100 μM I3C for 96 hours were hypotonically lysed in the presence of propidium iodide to fluorescently stain the nuclear DNA.
as §2
In general terms: Flow cytometry measures light scatter and fluorescence of single cells or particles in a stream.

The subject of data set [6] is cell growth. Put plainly: Inhibition of cell growth. The data set is classed as cell-based.
Data set [7] has as its system MCF7 human breast cancer cells. The data set is described as follows: cells. The following applies: for cell proliferation: 48 hours. On the procedure:
as §3, §2

Data set [8] has as its system p21 cell cycle inhibitor. The data set is described as follows: Western blot of p21 cell cycle inhibitor level. The data set is classed as cell-based, human. As to conditions: only after 72-96 hours of treatment. On the procedure: Western blot analysis has shown that I3C stimulates the level of the p21 cell cycle inhibitor by approximately 3-4 fold only after 72-96 hours of indole treatment, which is when the cells begin to display their maximal cell cycle arrest. This response is not likely to initiate the cell cycle arrest, though provides another useful molecular marker to in the examination of tissue biopsies.

For data set [9], the system named is DMBA-induced mammary tumors. The following applies: administered prior to and during DMBA treatment; cited from earlier work.
In data set [10] the test system is human MCF7 breast cancer cells. The following applies: 50 μM, long term treatment (up to six weeks), high density cultures; cited from earlier work.
The test system of data set [11] is estradiol 2-hydroxylation. As to conditions: oral, around 500 mg daily for one week, men and women; cited from earlier work.
Data set [12] concerns CDK2. The data set is described as follows: Western/Northern blot of CDK2 expression. As to conditions: same conditions as CDK6 reduction. The class given is cell-based, human. On the procedure:
(§4) Our finding that I3C inhibits the protein levels of the CDK6 cell cycle component provides a unique molecular assay to determine the ability of a given I3C derivative to induce a cell cycle arrest of cancer cells. For example, I3C derivatives may be analyzed by western blot to determine the level of CDK6 protein produced in treated or untreated human MCF7 breast cancer cells. In particular, cells are treated with varying concentrations, varying times alone or in the presence of particular sets of anti-estrogens; treatment with I3C may be used as a positive control. The cell extracts are then electrophoretically fractionated in SDS polyacrylamide gels, blotted onto nitrocellular membranes, the blotted proteins probed with CDK6 antibodies and the CDK6 protein visualized by autoradiography. Other G1 acting cell cycle genes maybe examined to confirm that a given I3C derivative is acting similarly to I3C itself. For example, the levels of the other cyclin dependent kinases (CDK2 and CDK4), cell cycle activators (cyclin D 1, D2, D3 and E) or cell cycle inhibitors (p 15, 16, p21 or p27) that function at discrete times within G1 may be assessed in indole treated or untreated MCF7 breast cancer cells. […]

Data set [13] concerns methylnitrosourea-induced mammary tumors. As to conditions: administered prior to and during methylnitrosourea treatment; cited from earlier work.
The test system of data set [14] is spontaneous mammary tumors. The following applies: cited from earlier work.
For data set [15], the system named is 7,12-dimethyl-benz(α)anthracene (DMBA)-induced mammary tumors. As to conditions: cited from earlier work.
Data set [16] deals with Ah (dioxin) receptor. The following applies: cited from earlier work.
For data set [17] the following is noted: gastric acid; cited from earlier work.
The subject of data set [18] is CDK4. The data set is described as follows: Western/Northern blot of CDK4 expression. The data set is classed as cell-based, human. The following applies: same conditions as CDK6 reduction. As for the experimental part:
as §4

Data set [19] concerns CDK6. The data set is described as follows: CDK6 protein expression in estrogen receptor negative cell lines. The data set is classed as cell-based. As for the experimental part: To determine the mechanism by which I3C induces the G1 cell cycle arrest of human breast cancer cells, Western blot and Northern blot analyses were utilized to examine whether I3C treatment regulates the protein production and transcript expression of the cyclin dependent protein kinases (CDKs), cyclins and CDK Inhibitor components of the cell cycle that function within the G1 phase. […] In particular, CDK6 transcript levels dropped about 30% in 5 hrs and 60% by 15 hours. […] Furthermore, 13C inhibits CDK6 protein expression in estrogen receptor negative cell lines. […] This novel observation provides a basis for a molecular diagnostic assay to determine the sensitivity of a given tumor sample to I3C growth suppression.

“Also recorded” adds a separate entry of the source. Like-named read-outs stand apart in the source and are kept apart here.

`CC/C(=C(\c1ccccc1)c1ccc(OCCN(C)C)cc1)c1ccccc1` [tamoxifen]: the “level of CDK6 protein (Western blot)” value in [1] is recorded as “not”. Also, in [2] (10% fetal bovine serum), the “inhibition of basal ERE-vit-CAT reporter plasmid activity” value is 70%. The “cyclin D1 levels” value in data set [3] is “reduces”. Moreover, the growth inhibitory effect entry in data set [4] is “no growth inhibitory effects”. In data set [5], the “percentage of MCF7 cells arrested in G1” value is reported as 70%.

Turning to `CC(=O)OCc1cn(C(C)=O)c2ccccc12` [N,O-diacetyl-indole-3-carbinol], the “inhibition of cell growth” value in data set [6] is recorded as “particularly effective inhibitors of cell growth”.

Usually Kd stands for the free concentration of one partner at which half of the binding sites on the other are occupied at equilibrium, for simple one-to-one binding. Consider `OCc1c[nH]c2ccccc12` [Compound I3C, Indole-3-carbinol], for which the cell morphology entry in data set [7] (100 μM) was “no morphology change”; in data set [7] (300 μM), “changed to a more elongated phenotype”. Moreover, the cell proliferation result is recorded as “near maximally growth arrested” in [7] (100 μM) and “maximally inhibited” in data set [7] (300 μM). In data set [7] (Homo sapiens, MCF7, read-out: half-maximal response, inhibition of [3H]thymidine incorporation), the IC50 stood at 30 µM. The inhibition at 100 µM in data set [7] (Homo sapiens, MCF7, read-out: inhibition of MCF7 DNA synthesis ([3H]thymidine incorporation) compared to vehicle controls, 48 hours, 100 μM I3C, 10 μM tamoxifen, alone or combined) is roughly 70%; in [7] (Homo sapiens, MCF7, read-out: inhibition of [3H]thymidine incorporation, 100 μM, after 72 hours) it was 80%; in data set [7] (Homo sapiens, MCF7, read-out: inhibition of [3H]thymidine incorporation, 100 μM, after 96 hours) it was greater than 90%; in [4] (Homo sapiens, MDA-MB-231, 100 μM, read-out: inhibition of proliferation ([3H]thymidine incorporation)), greater than 50%. In addition, in data set [7] (prolonged exposure (5 days)), the cell death entry is reported as “did not result in any detectable cell death”. The “reversibility of growth suppression” value in data set [7] (time course of addition and withdrawal) is on record as “completely reversible”. The “rate of [3H]thymidine incorporation after withdrawal” value in [7] (within 48 hours of withdrawal from 48 or 72 hour treated cells) is “approximately equivalent to untreated cells”. Moreover, the “time of indole treatment to reduced level of CDK6 protein” value in data set [1] (48 hours prior to complete cell cycle arrest) was no more than 24 h. Moreover, the “drop of CDK6 transcript levels” value in [1] (by 15 hours) was roughly 60%; in data set [1] (in 5 hrs), “about 30%”. The “level of CDK6 protein (Western blot)” value in data set [1] was “reduced the level of CDK6 protein”. Besides, the “stimulation of p21 level” value in data set [8] is 3-4 fold. Also, in [2], the “effect on ERE-vit-CAT activity” value was “no effect”. Moreover, the “reduction of mammary tumor incidence” value in data set [9] is recorded as no more than 95%; in data set [13] it was no more than 65%. Further, the estradiol-induced proliferation result in data set [10] is given as “blocked”. For the same compound, the “increase in estradiol 2-hydroxylation” value in data set [11] is “approximately 50%”. Moreover, in data set [12], the “effect on CDK2 expression” value is “no effect”. Moreover, in [14] (diets with 500 or 2000 p.p.m., both doses), the “reduction of spontaneous mammary tumor incidence and multiplicity” value is “ca. 50%”. For the same compound, in [14] (high dose group), the tumor latency result is given as “prolonged”. Moreover, the “reduction of incidence of DMBA-induced mammary tumors” value in data set [15] (in the diet or by oral intubation prior to carcinogen) is reported as 70-80%. In addition, the Kd in data set [16] was 27 µM. Also, in data set [17], the “stability in acidic solution” value was “extremely unstable”. Besides, the “effect on CDK4 expression” value in data set [18] is listed as “no effect”. For the same compound, the CDK6 protein expression result in [19] is given as “inhibits”. For the same compound, the growth inhibitory effect result in data set [4] is on record as “strong growth suppression effect”. In addition, the “cells remaining with G2/M DNA content” value in data set [5] (100 μM, 96 hours) is given as “approximately 13%”. In addition, the “cells with 2n DNA content (G1 block)” value in data set [5] (100 μM, 96 hours) worked out at 75%. Also, the “percentage of MCF7 cells arrested in G1” value in data set [5] came to 75%.

In the case of estrogen, in data set [2], the “effect on ERE-vit-CAT activity” value is reported as “stimulated”.

As to `c1ccc2c(Cc3c[nH]c4ccccc34)c[nH]c2c1` [DIM, 3,3′-diindolylmethane], the “suppression of MCF7 cell growth” value in data set [7] (acid products of I3C) is reported as “do not suppress growth; also recorded: failed to suppress the growth”. In addition, the “reduction of DMBA-induced mammary tumors” value in data set [15] (in vivo) is recorded as “highly effective”. The Kd in data set [16] was 0.09 µM.
